Experimental data: article PMC8151276, “An Integrated Approach toward NanoBRET Tracers for Analysis of GPCR Ligand Engagement” (Molecules, 2021)

How the values were obtained:
Assay type in all cases: binding
GRM3 = molecular target: T1, GRM3 (Homo sapiens, UniProt Q14832); assay: NanoBRET screen HiBiT-GRM3 in HEK293; conditions: GRM3
T1 construct: purchased Promega (in-house HiBiT-GPCR construct library, NanoBRET)
Procedure: (§1) Each tracer candidate was screened across the entire library of HiBiT-GPCR constructs using NanoBRET as the detection modality. As depicted in Figure 4A, the specificity of interactions was evaluated through decrease in BRET due to competitive displacement of a bound tracer by excess parental compound. Each tracer was analyzed for binding to each HiBiT-GPCR fusion in the absence and in the presence of competing parental compound. Briefly, HEK293 cells were transfected with HiBiT-GPCR constructs diluted into promoterless DNA to reduce expression and maximize translocation to the cell surface. Each tracer candidate was then screened at concentrations of 1 μM and 0.1 μM across cells expressing these fusions. Cells were treated for 1.5 h with tracer either alone or in the presence of 20 μM competing parental compound (i.e., control). BRET was measured upon addition of purified LgBiT and subsequent complementation with HiBiT genetically fused to a GPCR. The specificity of interactions was assessed through a decrease in BRET signal due to competitive displacement of the bound tracer. To further gauge the robustness of these interactions, the fold response over the control (i.e., BRETtracer/BRETcontrol) was calculated. We chose a 1.5-fold response, which translates to ≥7-fold signal over noise as the minimal threshold required to score an interaction as positive. […]. Below we highlight the screening results obtained for our exemplary fluorescent tracers based on Clozapine, Amitriptyline and AZD1283.
(§2) HiBiT-GPCR DNA constructs were diluted in 10 mM Tris pH 8 to a final concentration of 0.01 μg/μL, arrayed in 96-well plates and stored at −20 °C. For transfection, HEK293 cells were suspended in Opti-MEM (without phenol red) supplemented with 2% fetal bovine serum (Seradigm) and 100 units/mL penicillin–streptomycin (Gibco) at a final concentration of 220,000 cells/mL and dispensed into white 96-well plates at 90 μL/well. Subsequent transfections and screens were carried using an Agilent Bravo Automated Liquid Handling Platform. First, the 96-well HiBiT DNA arrays were diluted 25-fold in Opti-MEM (without serum or phenol red) to a final concentration of 0.0004 μg/μL and 20 μL of the diluted DNAs were transferred into new 96-well plates. Next, promoterless carrier DNA (1 μg/μL) was diluted 25-fold (0.04 μg/μL) and then dispensed into the diluted arrays at 20 μL/well. Following brief mixing, Viafect transfection reagent (Promega) diluted 16-fold into Opti-MEM was dispensed into the plates at 40 μL/well. After mixing by pipetting, plates were incubated for 10 min on the pipetting station deck. The DNA-transfection reagent complexes were then added to plates containing cells. To facilitate the screen, 10 μL of DNA-transfection reagent complexes were added in duplicates to the top 4 and bottom 4 rows, resulting in two identical 48-well arrays per plate. Plates with transfected cells were incubated for 18–20 h at 37 °C/5% CO2. A screen of each tracer across the entire library using two different concentrations requires duplicate plates of transfected cells. Depending on the number of tracers being screened, transfections can be scaled up using the same ratios. The next day, for each tracer, four 20× screening solutions in tracer dilution buffer (Promega) were prepared: two duplicates at final concentration of 20 μM and two duplicates at a final concentration of 2 μM. A competing unmodified compound was added to one of each duplicate at a final concentration of 400 μM. The four resulting solutions were diluted 4-fold in Opti-MEM without serum or phenol red to generate 5× solutions (5 µM and 0.5 µM tracer +/− 100 μM competing compound). To screen the library, a BioTek MultiFlo FX liquid dispenser was used to dispense 22.5 µL of tracer solution to the top 4 rows and 22.5 µL tracer + competing compound solution to the 4 bottom rows. Plates were briefly mixed on an orbital shaker and incubated for 1.5 h at room temperature. […]

VIPR2 = molecular target: T2, VIPR2 (Homo sapiens, UniProt P41587); assay: NanoBRET screen HiBiT-VIPR2 in HEK293; conditions: VIPR2
T2 construct: purchased Promega (in-house HiBiT-GPCR construct library, NanoBRET)
T2 sequence (P41587 24-438): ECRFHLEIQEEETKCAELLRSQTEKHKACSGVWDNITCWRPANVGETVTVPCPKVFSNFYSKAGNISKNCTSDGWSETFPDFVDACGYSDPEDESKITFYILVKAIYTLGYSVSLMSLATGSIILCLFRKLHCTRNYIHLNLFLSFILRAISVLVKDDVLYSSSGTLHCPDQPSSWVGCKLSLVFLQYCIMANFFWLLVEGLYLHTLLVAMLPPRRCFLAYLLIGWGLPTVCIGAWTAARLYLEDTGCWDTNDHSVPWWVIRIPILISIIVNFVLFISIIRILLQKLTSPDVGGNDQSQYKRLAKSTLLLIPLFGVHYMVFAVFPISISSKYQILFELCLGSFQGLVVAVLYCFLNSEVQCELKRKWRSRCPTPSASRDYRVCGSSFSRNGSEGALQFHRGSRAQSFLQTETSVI
Procedure: as §1, §2

AGTR2 = molecular target: T3, AGTR2 (Homo sapiens, UniProt P50052); assay: NanoBRET screen HiBiT-AGTR2 in HEK293; conditions: AGTR2
T3 construct: purchased Promega (in-house HiBiT-GPCR construct library, NanoBRET)
T3 sequence (P50052 1-363): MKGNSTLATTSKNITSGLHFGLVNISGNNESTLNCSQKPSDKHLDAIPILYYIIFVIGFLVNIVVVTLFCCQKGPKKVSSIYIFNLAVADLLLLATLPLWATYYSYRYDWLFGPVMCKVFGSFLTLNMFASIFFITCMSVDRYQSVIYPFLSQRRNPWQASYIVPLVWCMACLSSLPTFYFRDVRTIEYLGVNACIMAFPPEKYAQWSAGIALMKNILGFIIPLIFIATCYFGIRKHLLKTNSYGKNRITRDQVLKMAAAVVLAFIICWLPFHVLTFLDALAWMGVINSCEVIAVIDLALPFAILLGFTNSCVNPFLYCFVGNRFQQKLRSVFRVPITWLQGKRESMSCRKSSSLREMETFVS
Procedure: as §1, §2

RXFP2 = molecular target: T4, RXFP2 (Homo sapiens, UniProt Q8WXD0); assay: NanoBRET screen HiBiT-RXFP2 in HEK293; conditions: RXFP2
T4 construct: purchased Promega (in-house HiBiT-GPCR construct library, NanoBRET)
T4 sequence (Q8WXD0 whole entry): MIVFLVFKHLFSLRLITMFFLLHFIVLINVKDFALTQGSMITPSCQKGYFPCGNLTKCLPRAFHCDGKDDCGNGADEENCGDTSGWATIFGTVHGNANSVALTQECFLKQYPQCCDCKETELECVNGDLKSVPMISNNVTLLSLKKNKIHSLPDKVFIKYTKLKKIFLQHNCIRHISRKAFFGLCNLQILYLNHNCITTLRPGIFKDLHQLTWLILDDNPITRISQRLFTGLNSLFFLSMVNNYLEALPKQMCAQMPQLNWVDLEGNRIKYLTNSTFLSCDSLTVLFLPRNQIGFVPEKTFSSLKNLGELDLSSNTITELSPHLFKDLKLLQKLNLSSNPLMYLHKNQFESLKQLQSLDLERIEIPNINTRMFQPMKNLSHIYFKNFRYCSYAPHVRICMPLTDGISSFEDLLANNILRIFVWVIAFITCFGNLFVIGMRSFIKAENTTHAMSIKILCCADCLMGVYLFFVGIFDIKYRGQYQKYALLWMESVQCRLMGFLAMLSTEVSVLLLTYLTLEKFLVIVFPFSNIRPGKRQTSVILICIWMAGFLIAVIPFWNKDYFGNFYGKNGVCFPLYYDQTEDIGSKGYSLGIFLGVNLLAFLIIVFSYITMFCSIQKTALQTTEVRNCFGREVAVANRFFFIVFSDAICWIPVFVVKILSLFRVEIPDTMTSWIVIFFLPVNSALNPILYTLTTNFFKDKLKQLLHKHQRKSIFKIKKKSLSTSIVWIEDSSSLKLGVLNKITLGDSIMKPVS
Procedure: as §1, §2

PTGER4 = molecular target: T5, PTGER4 (Homo sapiens, UniProt P35408); assay: NanoBRET screen HiBiT-PTGER4 in HEK293; conditions: PTGER4
T5 construct: purchased Promega (in-house HiBiT-GPCR construct library, NanoBRET)
T5 sequence (P35408 whole entry): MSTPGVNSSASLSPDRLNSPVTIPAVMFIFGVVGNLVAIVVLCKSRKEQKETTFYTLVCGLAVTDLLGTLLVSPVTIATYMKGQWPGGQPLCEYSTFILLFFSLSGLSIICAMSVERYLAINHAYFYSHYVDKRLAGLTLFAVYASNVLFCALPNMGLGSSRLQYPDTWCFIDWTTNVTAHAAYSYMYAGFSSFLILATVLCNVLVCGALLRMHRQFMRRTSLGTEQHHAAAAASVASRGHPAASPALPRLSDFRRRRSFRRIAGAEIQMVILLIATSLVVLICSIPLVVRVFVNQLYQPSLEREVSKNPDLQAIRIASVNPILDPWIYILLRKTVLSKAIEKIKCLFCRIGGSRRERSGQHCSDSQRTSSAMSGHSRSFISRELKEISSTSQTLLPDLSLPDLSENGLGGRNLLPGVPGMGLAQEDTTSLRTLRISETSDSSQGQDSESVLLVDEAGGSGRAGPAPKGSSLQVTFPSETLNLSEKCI
Procedure: as §1, §2

T1 sequence (Q14832 23-879): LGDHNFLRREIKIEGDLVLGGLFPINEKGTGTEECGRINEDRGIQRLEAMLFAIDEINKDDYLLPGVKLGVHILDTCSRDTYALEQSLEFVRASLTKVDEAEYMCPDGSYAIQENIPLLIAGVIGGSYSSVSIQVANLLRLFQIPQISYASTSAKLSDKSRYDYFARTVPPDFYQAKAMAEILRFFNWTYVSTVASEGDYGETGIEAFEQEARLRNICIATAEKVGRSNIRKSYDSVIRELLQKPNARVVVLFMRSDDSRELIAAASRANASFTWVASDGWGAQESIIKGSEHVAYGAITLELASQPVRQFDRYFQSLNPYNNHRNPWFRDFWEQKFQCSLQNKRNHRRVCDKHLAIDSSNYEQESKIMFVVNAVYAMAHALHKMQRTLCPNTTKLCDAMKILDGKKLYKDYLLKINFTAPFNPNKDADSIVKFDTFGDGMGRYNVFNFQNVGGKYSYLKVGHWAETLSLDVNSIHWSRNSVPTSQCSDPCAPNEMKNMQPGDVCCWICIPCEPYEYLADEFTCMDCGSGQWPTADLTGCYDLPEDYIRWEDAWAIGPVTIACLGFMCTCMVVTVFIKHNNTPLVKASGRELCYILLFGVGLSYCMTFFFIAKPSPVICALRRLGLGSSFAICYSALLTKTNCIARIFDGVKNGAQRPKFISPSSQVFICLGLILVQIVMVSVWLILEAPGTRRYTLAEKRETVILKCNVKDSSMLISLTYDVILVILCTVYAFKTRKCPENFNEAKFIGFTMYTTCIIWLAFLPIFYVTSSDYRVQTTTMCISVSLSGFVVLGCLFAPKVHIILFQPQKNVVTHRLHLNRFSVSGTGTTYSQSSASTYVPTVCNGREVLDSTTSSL

For `O=C(CCOCCOCCOCCOCCNC(=O)CCc1ccc2n1[B-](F)(F)[N+]1=C(c3ccc[nH]3)C=CC1=C2)NCCCN1CCN(C2=Nc3cc(Cl)ccc3Nc3ccccc32)CC1` [Clozapine-a-2-NB590], the “NanoBRET Fold Response” value (GRM3; 0.1μM tracer) was 0.97, the “NanoBRET Fold Response” value (GRM3; 1μM tracer) was 0.96 and the “NanoBRET Fold Response” value (VIPR2; 0.1μM tracer) was 1.14. The “NanoBRET Fold Response” value (VIPR2; 1μM tracer) was 0.89, the “NanoBRET Fold Response” value (AGTR2; 0.1μM tracer) was 1.02 and the “NanoBRET Fold Response” value (AGTR2; 1μM tracer) was 1.03. The “NanoBRET Fold Response” value (RXFP2; 0.1μM tracer) was 1.23, the “NanoBRET Fold Response” value (RXFP2; 1μM tracer) was 1.14 and the “NanoBRET Fold Response” value (PTGER4; 0.1μM tracer) was 1.02. The “NanoBRET Fold Response” value (PTGER4; 1μM tracer) was 1.06.
For `N#CN=C(NCCCOc1cccc(CN2CCCCC2)c1)NCCNC(=O)CCOCCOCCOCCOCCNC(=O)CCc1ccc2n1[B-](F)(F)[N+]1=C(c3ccc[nH]3)C=CC1=C2` [Aminopotentidine-2-NB590], the “NanoBRET Fold Response” value (GRM3; tracer 0.1μM) was 1.01, the “NanoBRET Fold Response” value (GRM3; tracer 1μM) was 1.03 and the “NanoBRET Fold Response” value (VIPR2; tracer 0.1μM) was 1.01. For the same compound, the “NanoBRET Fold Response” value (VIPR2; tracer 1μM) was 1.08, the “NanoBRET Fold Response” value (AGTR2; tracer 0.1μM) was 0.98 and the “NanoBRET Fold Response” value (AGTR2; tracer 1μM) was 1.04. The “NanoBRET Fold Response” value (RXFP2; tracer 0.1μM) was 0.83, the “NanoBRET Fold Response” value (RXFP2; tracer 1μM) was 0.83 and the “NanoBRET Fold Response” value (PTGER4; tracer 0.1μM) was 1.05. For the same compound, the “NanoBRET Fold Response” value (PTGER4; tracer 1μM) was 1.03.
`O=C(CCc1ccc2n1[B-](F)(F)[N+]1=C(c3ccc[nH]3)C=CC1=C2)NCc1ccc(C(=O)NCCOCCOCCNCC(O)COc2cccc3ccccc23)cc1` (centres unmarked) [Propranolol-3-NB590] was tested, and the “NanoBRET Fold Response” value (GRM3; 0.1μM) was 1.02, the “NanoBRET Fold Response” value (GRM3; 1μM) was 0.95 and the “NanoBRET Fold Response” value (VIPR2; 0.1μM) was 0.95. The “NanoBRET Fold Response” value (VIPR2; 1μM) was 1.03, the “NanoBRET Fold Response” value (AGTR2; 0.1μM) was 0.95 and the “NanoBRET Fold Response” value (AGTR2; 1μM) was 0.99. The “NanoBRET Fold Response” value (RXFP2; 0.1μM) was 0.27, the “NanoBRET Fold Response” value (RXFP2; 1μM) was 0.78 and the “NanoBRET Fold Response” value (PTGER4; 0.1μM) was 1.04. The “NanoBRET Fold Response” value (PTGER4; 1μM) was 1.06.
For `O=C(CCc1ccc2n1[B-](F)(F)[N+]1=C(c3ccc[nH]3)C=CC1=C2)NCc1ccc(C(=O)NCCOCCC(=O)N[C@@H]2CC[C@@]3(O)[C@H]4Cc5ccc(O)c6c5[C@@]3(CCN4CC3CC3)[C@H]2O6)cc1` [Naltrexone-3-NB590], the “NanoBRET Fold Response” value (GRM3; tracer 0.1μM) was 1.15, the “NanoBRET Fold Response” value (GRM3; tracer 1μM) was 0.81 and the “NanoBRET Fold Response” value (VIPR2; tracer 0.1μM) was 1.17. The “NanoBRET Fold Response” value (VIPR2; tracer 1μM) was 1.05, the “NanoBRET Fold Response” value (AGTR2; tracer 0.1μM) was 1.23 and the “NanoBRET Fold Response” value (AGTR2; tracer 1μM) was 0.67. For the same compound, the “NanoBRET Fold Response” value (RXFP2; tracer 0.1μM) was 1.31, the “NanoBRET Fold Response” value (RXFP2; tracer 1μM) was 0.72 and the “NanoBRET Fold Response” value (PTGER4; tracer 0.1μM) was 0.94. The “NanoBRET Fold Response” value (PTGER4; tracer 1μM) was 1.01.
`COc1ccccc1N1CCN(CCCCN2C(=O)c3ccc(CNC(=O)CCOCCNC(=O)c4ccc(CNC(=O)CCc5ccc6n5[B-](F)(F)[N+]5=C(c7ccc[nH]7)C=CC5=C6)cc4)cc3C2=O)CC1` [NAN-190-3-NB590] was tested, and the “NanoBRET Fold Response” value (GRM3; tracer 0.1μM) was 0.98, the “NanoBRET Fold Response” value (GRM3; tracer 1μM) was 1.25 and the “NanoBRET Fold Response” value (VIPR2; tracer 0.1μM) was 0.98. The “NanoBRET Fold Response” value (VIPR2; tracer 1μM) was 0.87, the “NanoBRET Fold Response” value (AGTR2; tracer 0.1μM) was 0.99 and the “NanoBRET Fold Response” value (AGTR2; tracer 1μM) was 0.90. For the same compound, the “NanoBRET Fold Response” value (RXFP2; tracer 0.1μM) was 0.63, the “NanoBRET Fold Response” value (RXFP2; tracer 1μM) was 0.89 and the “NanoBRET Fold Response” value (PTGER4; tracer 0.1μM) was 1.00. The “NanoBRET Fold Response” value (PTGER4; tracer 1μM) was 0.97.
